Where a name gives a salt, the structure may show the parent alone. Read-outs that look alike come from different tables or passages of the source.
Tests used:
Assay type in all cases: in vivo
Hedyotis verticillata = assay: Field trial, herbicidal activity against Hedyotis verticillata in oil palm plantation; conditions: Scleromitrion verticillatum; for inhibition at 25 g/ha: read-out: Herbicidal activity (%), w. after appl., No. 11, dose 25 g of AS/ha; for inhibition at 50 g/ha: read-out: Herbicidal activity (%), w. after appl., No. 12, dose 50 g of AS/ha; for inhibition at 80 g/ha: read-out: Herbicidal activity (%), w. after appl., No. 13, dose 80 g of AS/ha
Procedure: (§1) In an oil palm plantation, the economically important tropical weed Hedyotis verticillata was grown on plots of the dimensions 2×5 m under natural outdoor conditions and treated with the herbicides A1.2, B1 and C1 or their mixtures in a tank mix under standard conditions using a plot sprayer, at a water application rate of 450 liters of water per hectare (over-the-top application to the weeds; plant density initially more than 95% ground coverage). At intervals of 1, 2, 3, 4, 5, 6, 7 and 8 weeks after the application, the herbicidal efficacy of the active compounds or active compound mixtures was evaluated visually on the basis of the treated plots, in comparison with untreated control plots. The damage to and development of all above-ground parts of the plants were recorded. Evaluation was carried out using a percentage scale (100% effect=all plants killed; 50% effect=50% of the plants and the green parts of the plants killed; 0% effect=no noticeable effect=like control plot). The evaluation values of in each case 4 plots were averaged.

Asystasia intrusa = assay: Field trial, herbicidal activity against Asystasia intrusa in rubber tree plantation; conditions: Asystasia intrusa, read-out: Activity (%), w. after appl., No. 2, dose 60 g of AS/ha
Procedure: as §1
In a rubber tree plantation, plots with the tropical weed Asystasia intrusa were grown under natural outdoor conditions (dimensions of the plots 2 x 5 m). The herbicides or their mixtures in a tank mix were applied under standard conditions (over-the-top application using a plot sprayer, water application rate 450 l/ha). In intervals of 4, 7, 13, 17 and 21 weeks after the application, the herbicidal efficacy of the active compounds or their mixtures was evaluated visually on the basis of the treated plots, in comparison with untreated control plots. The damage to and the development of all above-ground parts of the plants were recorded. Evaluation was carried out as described in Example 1.

Axonopus compressus = assay: Field trial, herbicidal activity against Axonopus compressus in rubber tree plantation; conditions: Axonopus compressus, read-out: Activity (%), w. after appl., No. 2, dose 60 g of AS/ha
Procedure: as §1
In a rubber tree plantation, plots with the tropical weed Axonopus compressus were grown under natural outdoor conditions (plot dimensions 2×5 m). The herbicides or their mixtures in a tank mix were applied under standard conditions using a plot spayer at a water application rate of 450 liters of water per hectare (over-the-top application). At intervals of 4, 7, 13, 17 and 21 weeks after the application, the herbicidal efficacy of the active compounds or active compound mixtures was evaluated visually on the basis of the treated plots, in comparison with untreated control plots. The damage to and development of all above-ground parts of the plants were recorded. Evaluation was carried out as described in Example 1.

[1] = tested on: Brachiaria mutica, Digitaria horizontalis, Panicum maximum, Echinochloa colona and Ageratum conyzoides; assay: Field trial, herbicidal activity against weeds in sugar cane plantation
Procedure: as §1, with “Evaluation was carried out using a percentage scale (100% effect=all plants killed; 50% effect=50% of the plants and the green parts of the plants killed; 0% effect=no noticeable effect=like control plot). The evaluation values of in each case 4 plots were averaged.” left out
In a sugar cane plantation, plots with the weeds Brachiaria mutica, Digitaria horizontalis, Panicum maximum, Echinochloa colona and Ageratum conyzoides were grown under natural outdoor conditions (dimensions of the plots 2×5 m). […] Four weeks after the application, the herbicidal efficacy of the active compounds or their mixtures was evaluated visually on the basis of the treated plots, in comparison with untreated control plots. The damage to and development of all above-ground parts of the plants were recorded. […]

CP(=O)(O)CCC(N)C(=O)O (stereo not drawn) [A1.2, Glufosinate-monoammonium salt]
inhibition at 25 g/ha (Hedyotis verticillata; 1 w. after appl.): 35%
inhibition at 25 g/ha (Hedyotis verticillata; 2 w. after appl.): 28%
inhibition at 25 g/ha (Hedyotis verticillata; 3 w. after appl.): 23%
inhibition at 25 g/ha (Hedyotis verticillata; 4 w. after appl.): 20%
inhibition at 25 g/ha (Hedyotis verticillata; 5 w. after appl.): 10%
inhibition at 25 g/ha (Hedyotis verticillata; 6 w. after appl.): 10%
inhibition at 25 g/ha (Hedyotis verticillata; 7 w. after appl.): 10%
inhibition at 25 g/ha (Hedyotis verticillata; 8 w. after appl.): 0%
inhibition at 50 g/ha (Hedyotis verticillata; 1 w. after appl.): 35%
inhibition at 50 g/ha (Hedyotis verticillata; 2 w. after appl.): 25%
inhibition at 50 g/ha (Hedyotis verticillata; 3 w. after appl.): 20%
inhibition at 50 g/ha (Hedyotis verticillata; 4 w. after appl.): 20%
inhibition at 50 g/ha (Hedyotis verticillata; 5 w. after appl.): 10%
inhibition at 50 g/ha (Hedyotis verticillata; 6 w. after appl.): 10%
inhibition at 50 g/ha (Hedyotis verticillata; 7 w. after appl.): 10%
inhibition at 50 g/ha (Hedyotis verticillata; 8 w. after appl.): 0%
inhibition at 80 g/ha (Hedyotis verticillata; 1 w. after appl.): 58%
inhibition at 80 g/ha (Hedyotis verticillata; 2 w. after appl.): 45%
inhibition at 80 g/ha (Hedyotis verticillata; 3 w. after appl.): 40%
inhibition at 80 g/ha (Hedyotis verticillata; 4 w. after appl.): 40%
inhibition at 80 g/ha (Hedyotis verticillata; 5 w. after appl.): 40%
inhibition at 80 g/ha (Hedyotis verticillata; 6 w. after appl.): 30%
inhibition at 80 g/ha (Hedyotis verticillata; 7 w. after appl.): 28%
inhibition at 80 g/ha (Hedyotis verticillata; 8 w. after appl.): 8%
inhibition at 60 g/ha (Asystasia intrusa; 4 w. after appl.): 23%
inhibition at 60 g/ha (Asystasia intrusa; 7 w. after appl.): 5%
inhibition at 60 g/ha (Asystasia intrusa; 13 w. after appl.): 0%
inhibition at 60 g/ha (Asystasia intrusa; 17 w. after appl.): 0%
inhibition at 60 g/ha (Asystasia intrusa; 21 w. after appl.): 0%
inhibition at 60 g/ha (Axonopus compressus; 4 w. after appl.): 17%
inhibition at 60 g/ha (Axonopus compressus; 7 w. after appl.): 10%
inhibition at 60 g/ha (Axonopus compressus; 13 w. after appl.): 0%
inhibition at 60 g/ha (Axonopus compressus; 17 w. after appl.): 0%
inhibition at 60 g/ha (Axonopus compressus; 21 w. after appl.): 0%
inhibition at 300 g/ha ([1]; 672 h, read-out: Herbicidal activity (%)): 72%
Weed coverage (%) ([1]; No. 2, dose 300 g of AS/ha, percent ground coverage, control plot has more than 95% weed coverage): 27%
